Here are results for three compounds from publication PMC6930567, “NMR Study of the Secondary Structure and Biopharmaceutical Formulation of an Active Branched Antimicrobial Peptide” (Molecules, 2019).

Counter-ions that a name gives are not always drawn. Like-named read-outs stand apart in the source and are kept apart here. Positions of bridges follow the written chain, without caps; N, C: chain ends. Non-standard residues stand in square brackets, D forms with d. Residues, ends and D or L forms follow the SMILES beside them. Chains are numbered I, II in the order given. βAla = NCCC(=O)O

Series [1] concerns CD1 mice. Conditions: cited from earlier work; for signs of acute toxicity in vivo: scored not-observable, mild, severe. The method, then:
Table 4 Signs of acute toxicity in vivo of the three SET-M33 salts. | column: 20 mg/kg; 25 mg/kg || Acute toxicity of SET-M33 chloride was tested in mice and compared with the acetate and TFA counter-ions. Ten animals per group (five males and five females) were injected with two doses of SET-M33 chloride, 20 and 30 mg/kg, known to be below the LD50 [7]. Signs of toxicity were scored as not-observable, mild and severe. SET-M33 chloride and SET-M33 acetate scored 100% not-observable (Table 4), unlike the TFA that scored 100% toxicity at 25 mg/kg, described as 33% severe and 66% mild.

For series [2], the system named is CD1 mice. Nature of the series: Acute toxicity in mice. It counts as in vivo, mouse. The settings on record: for signs of acute toxicity in vivo: 10/group, monitored 96 h, scored not-observable, mild, severe; for share of animals scored not-observable for signs of toxicity: i.v. single dose, chloride 20 and 30 mg/kg, acetate 25 and 30 mg/kg. The method, then:
Acute toxicity of SET-M33 chloride was tested in mice and compared with the acetate and TFA counter-ions. Ten animals per group (five males and five females) were injected with two doses of SET-M33 chloride, 20 and 30 mg/kg, known to be below the LD50 [7]. Signs of toxicity were scored as not-observable, mild and severe. SET-M33 chloride and SET-M33 acetate scored 100% not-observable (Table 4), unlike the TFA that scored 100% toxicity at 25 mg/kg, described as 33% severe and 66% mild.
All animal experiments were conducted under the protocol approved by the Italian Ministry of Health at the Toscana Life Sciences Foundation animal facility in Siena, Italy (authorization n. 34/2016PR). Animals (10 CD1 mice/group, 20–22 g) were injected i.v. with SET-M33 acetate (group 1 and group 2) and SET-M33 chloride (group 3 and group 4), in a single dose. The doses were: group 1, 25 mg/kg SET-M33 acetate; group 2, 30 mg/kg SET-M33 acetate; group 3, 20 mg/kg SET-M33 chloride and group 4, 30 mg/kg SET-M33 chloride. Animals were monitored for 96 h. Signs of toxicity were checked four times a day by visual inspection and were scored as not-observable, mild and severe. Mice were weighed every day from arrival to the last day of the experiment. Animals with clear signs of distress, such as reduced mobility and weight loss greater than 20%, were anesthetized and sacrificed with carbon dioxide or by cervical dislocation.

The subject of series [3] is 16HBE14o- human bronchial epithelial cells. It counts as cell-based. Conditions: 48 h. The procedure:
(§1) T24 human epithelial bladder cells, 16HBE14o- human bronchial epithelial cells and RAW264.7 mouse macrophages were plated at a density of 2.5 × 10^4 cells/well in 96-well microplates. The 16HBE14o- cells were previously incubated with coating solution (88% LHC basal medium, 10% bovine serum albumin, 30 µg/mL bovine collagen type I and 1% human fibronectin). Different concentrations of SET-M33 TFA, acetate and chloride were added 24 h after plating. Cells were grown for 48 h at 37 °C. Their viability was assessed by 3-(4,5-dimethylthiazol-2-yl)2,5-diphenyltetrazolium bromide (MTT) assay. EC50 values were obtained by dose-response variable slope analysis using GraphPad Prism 5.03 software (San Diego, CA, USA).

The subject of series [4] is T24 human bladder epithelial cells. It counts as cell-based. Conditions: 48 h. The procedure: as §1
Series [5] has as its system RAW264.7 mouse macrophages. It counts as cell-based. The settings on record: 48 h. The method, then:
as §1

Another series concerns E. coli TG-1. It counts as cell-based. Conditions: TG-1, 24 h. The method, then: (§2) Antimicrobial susceptibility was assessed by determining the minimum inhibitory concentrations (MICs) of SET-[…] acetate and SET-[…] chloride against E. coli TG-1 and P. aeruginosa PAO-1, using the broth microdilution technique according to 2017 EUCAST guidelines. The MIC assay measures visible inhibition of bacterial growth after 24 h exposure of bacteria to antibiotic in Mueller-Hinton (MH) broth. Assays were performed in triplicate using a bacterial inoculum of 5 × 10^4 CFU/well in a final volume of 100 μL. The twofold antibiotic concentration ranged from 0.1 μM to 12 μM for both peptides. MICs were read after 24 h of incubation at 35 °C.

The test system of the next series is P. aeruginosa PAO-1. It counts as cell-based. Conditions: PAO-1, 24 h. The procedure: as §2

For `CC[C@H](C)[C@H](NC(=O)[C@H](CCCCN)NC(=O)[C@@H](N)CCCCN)C(=O)N[C@@H](CCCNC(=N)N)C(=O)N[C@H](C(=O)N[C@@H](CCCNC(=N)N)C(=O)N[C@@H](CC(C)C)C(=O)N[C@@H](CO)C(=O)N[C@@H](C)C(=O)NCCCC[C@H](NC(=O)[C@H](C)NC(=O)[C@H](CO)NC(=O)[C@H](CC(C)C)NC(=O)[C@H](CCCNC(=N)N)NC(=O)[C@@H](NC(=O)[C@H](CCCNC(=N)N)NC(=O)[C@@H](NC(=O)[C@H](CCCCN)NC(=O)[C@@H](N)CCCCN)[C@@H](C)CC)C(C)C)C(=O)NCCCC[C@H](NC(=O)[C@H](CCCCNC(=O)[C@H](C)NC(=O)[C@H](CO)NC(=O)[C@H](CC(C)C)NC(=O)[C@H](CCCNC(=N)N)NC(=O)[C@@H](NC(=O)[C@H](CCCNC(=N)N)NC(=O)[C@@H](NC(=O)[C@H](CCCCN)NC(=O)[C@@H](N)CCCCN)[C@@H](C)CC)C(C)C)NC(=O)[C@H](C)NC(=O)[C@H](CO)NC(=O)[C@H](CC(C)C)NC(=O)[C@H](CCCNC(=N)N)NC(=O)[C@@H](NC(=O)[C@H](CCCNC(=N)N)NC(=O)[C@@H](NC(=O)[C@H](CCCCN)NC(=O)[C@@H](N)CCCCN)[C@@H](C)CC)C(C)C)C(=O)NCCC(=O)O)C(C)C` [SET-M33 acetate] (I: H-KKIRVRLSAKK[βAla]-OH / II: H-KKIRVRLSAK / III: H-KKIRVRLSA / IV: H-KKIRVRLSA; amide I:10-IV:C, I:11-II:C, II:10-III:C), the “signs of acute toxicity in vivo” value is “not-observable [6]” in the series with CD1 mice [1] (20 mg/kg), “not-observable” with CD1 mice [2] (25 mg/kg i.v. single dose) and “not-observable” in the series on CD1 mice [2] (30 mg/kg i.v. single dose). Also, the “share of animals scored not-observable for signs of toxicity” value in the series on CD1 mice [2] was 100%. For the same compound, the EC50 (as a rule, the concentration at which the effect is half-maximal) in series [3] was 9.62 µM; in series [4], 12.4 µM; in series [5], 5.1 µM. The minimum inhibitory concentration (MIC) (as a rule, the smallest concentration in the dilution series that meets the test's criterion for growth inhibition) against E. coli TG-1 worked out at 1.5 µM; in the series on P. aeruginosa PAO-1 it was 3 µM.
`CC[C@H](C)[C@H](NC(=O)[C@H](CCCCN)NC(=O)[C@@H](N)CCCCN)C(=O)N[C@@H](CCCNC(=N)N)C(=O)N[C@H](C(=O)N[C@@H](CCCNC(=N)N)C(=O)N[C@@H](CC(C)C)C(=O)N[C@@H](CO)C(=O)N[C@@H](C)C(=O)NCCCC[C@H](NC(=O)[C@H](C)NC(=O)[C@H](CO)NC(=O)[C@H](CC(C)C)NC(=O)[C@H](CCCNC(=N)N)NC(=O)[C@@H](NC(=O)[C@H](CCCNC(=N)N)NC(=O)[C@@H](NC(=O)[C@H](CCCCN)NC(=O)[C@@H](N)CCCCN)[C@@H](C)CC)C(C)C)C(=O)NCCCC[C@H](NC(=O)[C@H](CCCCNC(=O)[C@H](C)NC(=O)[C@H](CO)NC(=O)[C@H](CC(C)C)NC(=O)[C@H](CCCNC(=N)N)NC(=O)[C@@H](NC(=O)[C@H](CCCNC(=N)N)NC(=O)[C@@H](NC(=O)[C@H](CCCCN)NC(=O)[C@@H](N)CCCCN)[C@@H](C)CC)C(C)C)NC(=O)[C@H](C)NC(=O)[C@H](CO)NC(=O)[C@H](CC(C)C)NC(=O)[C@H](CCCNC(=N)N)NC(=O)[C@@H](NC(=O)[C@H](CCCNC(=N)N)NC(=O)[C@@H](NC(=O)[C@H](CCCCN)NC(=O)[C@@H](N)CCCCN)[C@@H](C)CC)C(C)C)C(=O)NCCC(=O)O)C(C)C` [SET-M33 TFA] (I: H-KKIRVRLSAKK[βAla]-OH / II: H-KKIRVRLSAK / III: H-KKIRVRLSA / IV: H-KKIRVRLSA; amide I:10-IV:C, I:11-II:C, II:10-III:C): in the series on CD1 mice [1] (25 mg/kg), the “signs of acute toxicity in vivo” value was “mild to severe”, the “share of animals with mild signs of toxicity” value was 66%, the “share of animals with severe signs of toxicity” value is listed as 33% and the “toxicity score (share of animals with signs of toxicity)” value is 100%. The half-maximal effective concentration (EC50) in series [3] amounted to 11.1 µM. This compound also yielded a 50% effective concentration (EC50) in series [4] of 13.6 µM. For the same compound, the EC50 in series [5] was determined as 3.85 µM.
As to `CC[C@H](C)[C@H](NC(=O)[C@H](CCCCN)NC(=O)[C@@H](N)CCCCN)C(=O)N[C@@H](CCCNC(=N)N)C(=O)N[C@H](C(=O)N[C@@H](CCCNC(=N)N)C(=O)N[C@@H](CC(C)C)C(=O)N[C@@H](CO)C(=O)N[C@@H](C)C(=O)NCCCC[C@H](NC(=O)[C@H](C)NC(=O)[C@H](CO)NC(=O)[C@H](CC(C)C)NC(=O)[C@H](CCCNC(=N)N)NC(=O)[C@@H](NC(=O)[C@H](CCCNC(=N)N)NC(=O)[C@@H](NC(=O)[C@H](CCCCN)NC(=O)[C@@H](N)CCCCN)[C@@H](C)CC)C(C)C)C(=O)NCCCC[C@H](NC(=O)[C@H](CCCCNC(=O)[C@H](C)NC(=O)[C@H](CO)NC(=O)[C@H](CC(C)C)NC(=O)[C@H](CCCNC(=N)N)NC(=O)[C@@H](NC(=O)[C@H](CCCNC(=N)N)NC(=O)[C@@H](NC(=O)[C@H](CCCCN)NC(=O)[C@@H](N)CCCCN)[C@@H](C)CC)C(C)C)NC(=O)[C@H](C)NC(=O)[C@H](CO)NC(=O)[C@H](CC(C)C)NC(=O)[C@H](CCCNC(=N)N)NC(=O)[C@@H](NC(=O)[C@H](CCCNC(=N)N)NC(=O)[C@@H](NC(=O)[C@H](CCCCN)NC(=O)[C@@H](N)CCCCN)[C@@H](C)CC)C(C)C)C(=O)NCCC(=O)O)C(C)C` [SET-M33 chloride] (I: H-KKIRVRLSAKK[βAla]-OH / II: H-KKIRVRLSAK / III: H-KKIRVRLSA / IV: H-KKIRVRLSA; amide I:10-IV:C, I:11-II:C, II:10-III:C), the “signs of acute toxicity in vivo” value with CD1 mice [2] (20 mg/kg i.v. single dose) and in the series on CD1 mice [2] (30 mg/kg i.v. single dose) was “not-observable” each time. The “share of animals scored not-observable for signs of toxicity” value with CD1 mice [2] is given as 100%. In addition, the half-maximal effective concentration (EC50) is 10.3 µM in series [3], 22.6 µM in series [4] and 6.12 µM in series [5]. Also, the minimal inhibitory concentration (MIC) in the series with E. coli TG-1 and against P. aeruginosa PAO-1 was 1.5 µM each time.
